Patent publication US20150133373A1, “TRANSMUCOSAL DELIVERY OF ENGINEERED POLYPEPTIDES” (priority 2012, published 2015)
Read-outs that look alike come from different tables or passages of the source. No end group written: not given here. *: point of attachment. maleimido‑mono‑amide‑DOTA = O=C(O)CN1CCN(CC(=O)O)CCN(CC(=O)NCCN2C(=O)CC(*)C2=O)CCN(CC(=O)O)CC1

What was measured:
[1] = Stability in a pancreatin enzyme mixture; type: in vitro ADME; conditions: isolated enzyme pancreatin
[2] = system: CD3+CD4+ T cells (PBMC from 52 human Caucasian individuals)
[3] = system: IgG molecules present in normal human sera; assay: Serum response analysis (ELISA, IgG binding to albumin binding polypeptides)
Method: Each serum sample was tested as a singlet.

[4] = system: Pancreatin; assay: Stability in a pancreatin enzyme mixture; type: in vitro ADME; conditions: pH 6.8
[5] = system: NIH/Swiss mice; assay: OGTT DOA (oral glucose tolerance test for duration of action) in NIH/Swiss mice; type: in vivo, mouse; conditions: for activity in OGTT DOA when dosed 24 hours before the glucose gavage (in words): dosed at t-24 hours; for % Glucose Lowering Compared to Vehicle: Table 6, 25 nmol/kg IP at t=−1 day, blood glucose at 30 min after glucose gavage ([…]), 4 hr fasted NIH/Swiss female mice
[6] = Melting temperature (Tm) by circular dichroism; type: physicochemical; conditions: CD at 221 nm, 20° to 90° C., 1×PBS, 0.4-0.5 mg/ml
Method: Purified albumin binding polypeptide variants were diluted in 1×PBS, to final concentrations between 0.4 and 0.5 mg/ml. Circular dichroism (CD) analysis was performed on a Jasco J-810 spectropolarimeter in a cell with an optical path-length of 1 mm. In the variable temperature measurements, the […] was measured at 221 nm from 20° to 90° C., with a temperature slope of 5° C./min.
The melting temperatures (Tm) of the different albumin binding polypeptide variants were calculated by determining the midpoint of the transition in the CD vs. temperature plot.

[7] = system: C57BL6 female mice; assay: Kidney vacuolization (cytoplasmic vacuolation of renal cortical tubular epithelial cells); type: in vivo, mouse; conditions: Example 32; sc injection on days 0-6, kidneys on day 7
Method: (§1) With some drugs, such as some pegylated proteins, undesirable vacuoles can form in cytoplasm of epithelial cells lining the proximal convoluted tubules, which is an undesirable toxicity measure. […] C57BL6 female mice (n=2 cages, 3 mice/cage) were weighed daily 3 hours prior to lights out Immediately after weighing, on days 0-6 mice were injected subcutaneously with test compound. Mice were sacrificed on day 7 and kidneys submitted for histopathology. […] A positive control compound known to cause vacuole formation was scored as 3. The ABD polypeptide itself scored 0.
as §1, with “3.” for “3. The ABD polypeptide itself scored 0.”

[8] = target: T1, GLP-1 receptor (Rattus norvegicus, UniProt P32301); assay: GLP-1 receptor functional activity (cAMP induction, HTRF cell-based assay, 6-23 (clone 6) cells)
T1 construct: cells that endogenously express GLP-1R; host or cells: rat thyroid carcinoma 6-23 (clone 6) cells
T1 sequence (P32301 22-463): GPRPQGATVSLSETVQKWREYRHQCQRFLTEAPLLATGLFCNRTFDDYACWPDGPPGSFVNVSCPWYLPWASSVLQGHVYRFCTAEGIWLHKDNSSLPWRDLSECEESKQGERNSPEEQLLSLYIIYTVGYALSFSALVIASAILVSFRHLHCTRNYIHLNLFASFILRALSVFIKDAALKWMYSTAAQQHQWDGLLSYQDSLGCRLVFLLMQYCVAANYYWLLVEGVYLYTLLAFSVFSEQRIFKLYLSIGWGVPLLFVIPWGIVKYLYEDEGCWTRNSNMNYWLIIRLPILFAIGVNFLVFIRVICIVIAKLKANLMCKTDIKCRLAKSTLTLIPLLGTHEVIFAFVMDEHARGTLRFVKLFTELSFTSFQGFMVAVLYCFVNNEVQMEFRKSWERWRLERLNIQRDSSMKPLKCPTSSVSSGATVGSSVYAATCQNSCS

In the case of `CC[C@H](C)[C@H](NC(=O)[C@H](Cc1ccccc1)NC(=O)[C@H](CCC(=O)O)NC(=O)[C@H](CCCCN)NC(=O)[C@H](C)NC(=O)[C@H](C)NC(=O)[C@H](CCC(N)=O)NC(=O)CNC(=O)[C@H](CCC(=O)O)NC(=O)[C@H](CC(C)C)NC(=O)[C@H](Cc1ccc(O)cc1)NC(=O)[C@H](CO)NC(=O)[C@H](CO)NC(=O)[C@@H](NC(=O)[C@H](CC(=O)O)NC(=O)[C@H](CO)NC(=O)[C@@H](NC(=O)[C@H](Cc1ccccc1)NC(=O)[C@@H](NC(=O)CNC(=O)[C@H](CCC(=O)O)NC(=O)[C@H](C)NC(=O)[C@@H](N)Cc1c[nH]cn1)[C@@H](C)O)[C@@H](C)O)C(C)C)C(=O)N[C@@H](C)C(=O)N[C@@H](Cc1c[nH]c2ccccc12)C(=O)N[C@@H](CC(C)C)C(=O)N[C@H](C(=O)N[C@@H](CCCCN)C(=O)NCC(=O)N[C@@H](CCCNC(=N)N)C(N)=O)C(C)C` [GLP-1 (7-36) (Human)], the remaining at 0.5 h, 30 micromolar ([1]; pancreatin enzyme mixture, 50 mM phosphate buffer pH 6.8, 37° C., 30 minutes, read-out: Percent Remaining at 30 minutes) is reported as 39% and the remaining at 1 h, 30 micromolar ([1]; pancreatin enzyme mixture, 50 mM phosphate buffer pH 6.8, 37° C., 60 minutes, read-out: Percent Remaining at 60 minutes) is reported as 24%.

For `CC[C@H](C)[C@H](NC(=O)[C@H](C)NC(=O)[C@H](CC(=O)O)NC(=O)[C@H](CCCCN)NC(=O)[C@H](CC(C)C)NC(=O)[C@H](C)NC(=O)[C@H](CCC(=O)O)NC(=O)[C@@H](NC(=O)CNC(=O)[C@H](CCC(=O)O)NC(=O)[C@@H](NC(=O)[C@@H](NC(=O)[C@H](CCCCN)NC(=O)[C@H](C)NC(=O)[C@H](CCCCN)NC(=O)[C@H](CC(=O)O)NC(=O)[C@@H](NC(=O)[C@H](CC(C)C)NC(=O)[C@H](CCCNC(=N)N)NC(=O)[C@H](CCCCN)NC(=O)[C@H](Cc1ccc(O)cc1)NC(=O)[C@H](Cc1ccccc1)NC(=O)[C@H](CC(=O)O)NC(=O)[C@H](CO)NC(=O)[C@@H](NC(=O)CNC(=O)[C@H](Cc1ccc(O)cc1)NC(=O)[C@H](CSC1CC(=O)N(CCNC(=O)CN2CCN(CC(=O)O)CCN(CC(=O)O)CCN(CC(=O)O)CC2)C1=O)NC(=O)[C@H](CC(=O)O)NC(=O)[C@H](CC(C)C)NC(=O)[C@H](CCC(=O)O)NC(=O)[C@H](C)NC(=O)[C@H](CC(N)=O)NC(=O)[C@H](C)NC(=O)[C@H](C)NC(=O)[C@H](CCC(=O)O)NC(=O)[C@H](CCCCN)NC(=O)[C@H](C)NC(=O)[C@H](CO)NC(=O)[C@H](C)NC(=O)[C@H](CC(C)C)NC(=O)CN)C(C)C)[C@@H](C)CC)[C@@H](C)O)C(C)C)C(C)C)C(=O)N[C@@H](CC(C)C)C(=O)N[C@@H](C)C(=O)N[C@@H](C)C(=O)N[C@@H](CC(C)C)C(=O)N1CCC[C@H]1C(=O)O` (stereo partly drawn) [PEP07968], the “immunogenicity classification (in words)” value [2] was “non-immunogenic”, the “number of responding individuals as compared to buffer only” value [2] was 1 and the “reactivity with IgG of human sera (in words)” value [3] was “least reactivity”.

In the case of `CCCCCCCCCCCCCCCC(=O)N[C@@H](CCC(=O)NCCCC[C@H](NC(=O)[C@H](C)NC(=O)[C@H](C)NC(=O)[C@H](CCC(N)=O)NC(=O)CNC(=O)[C@H](CCC(=O)O)NC(=O)[C@H](CC(C)C)NC(=O)[C@H](Cc1ccc(O)cc1)NC(=O)[C@H](CO)NC(=O)[C@H](CO)NC(=O)[C@@H](NC(=O)[C@H](CC(=O)O)NC(=O)[C@H](CO)NC(=O)[C@@H](NC(=O)[C@H](Cc1ccccc1)NC(=O)[C@@H](NC(=O)CNC(=O)[C@H](CCC(=O)O)NC(=O)[C@H](C)NC(=O)[C@@H](N)Cc1cnc[nH]1)[C@@H](C)O)[C@@H](C)O)C(C)C)C(=O)N[C@@H](CCC(=O)O)C(=O)N[C@@H](Cc1ccccc1)C(=O)N[C@H](C(=O)N[C@@H](C)C(=O)N[C@@H](Cc1c[nH]c2ccccc12)C(=O)N[C@@H](CC(C)C)C(=O)N[C@H](C(=O)N[C@@H](CCCNC(=N)N)C(=O)NCC(=O)N[C@@H](CCCNC(=N)N)C(=O)NCC(=O)O)C(C)C)[C@@H](C)CC)C(=O)O` [liraglutide, [N-epsilon-(gamma-Glu(N-alpha-hexadecanoyl))-Lys26,Arg34]-GLP-1-(7-37)-acid], the remaining at 0.5 h, 30 micromolar ([1]; pH 6.8) is reported as 100%, the remaining at 1 h, 30 micromolar ([1]; pH 6.8) is reported as 100% and the “susceptibility to pancreatic enzymes (in words)” value [4] is reported as “relatively resistant to pancreatic enzymes”.

For “GSLAEAKEAANAELDSYGVSDFYKRLIDKAKTVEGVEALKDAILAALP [PEP07986]”, the “activity in OGTT DOA when dosed 24 hours before the glucose gavage (in words)” value (“activity in OGTT DOA” for short) [5] was “inactive”.

In the case of “GSSLASAKEAANAELDSYGVSDFYKRLIDKAKTVEGVEALKDAILAALP [PEP07554]”, the Tm [6] is reported as 58 °C and the “reactivity with IgG of human sera (in words)” value [3] is reported as “least reactivity”.

With “HGEGTFTSDLSKQLEEEAVRLFIEWLKNGGPSSGAPPKSTGGGGSASGSLAEAKEAANAELDSYGVSDFYKRLIDKAKTVEGVEALKDAILAALP [Cmpd 2-6]” the “Percent glucose lowering compared to vehicle” value ([5]; Table 17, 25 nmol/Kg, OGTT at 24 hours post drug administration, 30 minutes post gavage) was −22%.

For “HGEGTFTSDLSKQLEEEAVRLFIEWLKQGGPSKEIISGGSLAEAKVLANRELDKYGVSDFYKRLINKAKTVEGVEALKLHILAALP [Cmpd 33]”, the “% Glucose Lowering Compared to Vehicle” value [5] was −19%.

In the case of “HGEGTFTSDLSKQLEEEAVRLFIEWLKQGGPSKEIISTGGGGSASGSLAEAKEAANAELDSYGVSDFYKRLIDKAKTVEGVEALKDAILAALP [Cmpd 2-5]”, the “Severity score for cytoplasmic vacuolation of renal cortical tubular epithelial cells” value [7] is reported as 0.

In the case of “HGEGTFTSDLSKQLEEEAVRLFIEWLKQGGPSKEIISTGGGGSGGGSGGGSGGGSASLAEAKVLANRELDKYGVSDFYKRLINKAKTVEGVEALKLHILAALP [Cmpd 8]”, the “% Glucose Lowering Compared to Vehicle” value [5] is reported as −21%.

For “HGEGTFTSDLSKQMEEEAVRLFIEWLKNGGSLAEAKVLANRELDKYGVSDFYKRLINKAKTVEGVEALKLHILAALP [Cmpd 32]”, the “activity in OGTT DOA” value [5] was “no glucose lowering”.

With “HGEGTFTSDLSKQMEEEAVRLFIEWLKNTGGGGSASLAEAKVLANRELDKYGVSDFYKRLINKAKTVEGVEALKLHILAALP [Cmpd 10]” the “% Glucose Lowering Compared to Vehicle” value [5] was −22%.

In the case of “PEP07975: DOTA-conjugated PEP07834, SEQ ID NO:460, via Cys14 with maleimido-mono-amide-DOTA; amidated at the C-terminus (ALASAKEAANAELDC(maleimido‑mono‑amide‑DOTA)YGVSDFYKRLIDKAKTVEGVEALKDAILAALP-NH2)”, the Tm [6] is reported as 50 °C.

In the case of “TT: tetanus toxoid (TT, Statens Serum Institut), positive control [reference compound]”, the “number of responding individuals as compared to buffer only” value ([2]; 52 donors) is reported as 49.

B1: HGEGTFTSDLSKQLEEEAVRLFIEWLKNTGGGGSASGSLAEAKEAANAELDSYGVSDFYKRLIDKAKTVEGVEALKDAILAALP (protein)
chain: HGEGTFTSDLSKQLEEEAVRLFIEWLKNTGGGGSASGSLAEAKEAANAELDSYGVSDFYKRLIDKAKTVEGVEALKDAILAALP
For B1, the “activity in OGTT DOA” value [5] was “did not display 24 h duration” and the “in vitro GLP-1 receptor functional activity (in words)” value [8] was “active in vitro against the GLP-1 receptor”.
